From PMC11371747, “The role of l-leucovorin uptake and metabolism in the modulation of 5-fluorouracil efficacy and antifolate toxicity” (Frontiers in Pharmacology, 2024)
Read-outs that look alike come from different tables or passages of the source.

Assays:
H28 cells = test: Growth inhibition, SRB assay, H28 (MPM); assay type: cell-based, human; details: H28, SRB, read-out: IC50, 72 h drug exposure
Procedure: (§1) Briefly, cells were seeded in triplicate in 96-well plates at their pre-established optimal density (CHO cells: 2,500 cells/100 μL; WiDr and HT29: 3,500 cells/100 μL; WiDr-LF/LV, LS174T: 5,000 cells/100 μL; CaCo2, CaCo2-LF/LV, H292, H28 and MSTO-211H: 6,000 cells/100 μL; H460, SW948 and SW1398: 7,000 cells/100 μL) and were allowed to attach for ∼ 24 h at 37°C in 5% CO2 and 100% humidified incubator. Thereafter, 100 μL of drug dilution without LV, or with 5 μM l-LV/5 μM d-LV/10 μM dL-LV (or any LV alone) were added. Cells were allowed to grow for 72 h at 37°C in 5% CO2 and 100% humidity. The t = 0 h control plate consisted of cells plated on the same day as the other cells, but after 24 h at 37°C in 5% CO2 and 100% humidity, only 100 μL medium was added and the cells were fixed immediately with 50% trichloroacetic acid (TCA) in milliQ water (25 μL per well) and put at 4°C for at least 1 h. Plates were washed five times with water and dried. Cells were stained with the SRB protein dye (0.4% (w/v) in 1% acetic acid. Excess dye was washed away four times with 1% acetic acid and plates were dried again. 200 μL of Tris (10 mM Tris (hydroxymethyl)-aminomethane in MQ) was added and optical density (OD) was read at 492 nm after mixing 2–3 min on a plate shaker.

MSTO-211H cells = test: Growth inhibition, SRB assay, MSTO-211H (MPM); assay type: cell-based, human; details: SRB, read-out: IC50, 72 h drug exposure
Procedure: as §1

H460 cells = test: Growth inhibition, SRB assay, H460 (NSCLC); assay type: cell-based, human; details: H460, SRB, read-out: IC50, 72 h drug exposure
Procedure: as §1

H292 cells = test: Growth inhibition, SRB assay, H292 (NSCLC); assay type: cell-based, human; details: H292, SRB, read-out: IC50, 72 h drug exposure
Procedure: as §1

NSCLC and MPM cell lines = test: Growth inhibition, SRB assay, NSCLC and MPM cell lines; assay type: cell-based, human; details: 5 µM l-LV, H28, MSTO-211H, H460, H292
Procedure: as §1

CHO/C5 cells = test: Growth inhibition, SRB assay, CHO/C5 (RFC-deficient); assay type: cell-based, Chinese hamster
Procedure: as §1

CHO/C5-MOCK cells = test: Growth inhibition, SRB assay, CHO/C5-MOCK (empty vector); assay type: cell-based, Chinese hamster
Procedure: as §1

CHO/C5-PCFT cells = test: Growth inhibition, SRB assay, CHO/C5-PCFT (PCFT-transfected); assay type: cell-based, Chinese hamster
Procedure: as §1

CHO/C5-hRFC cells = test: Growth inhibition, SRB assay, CHO/C5-hRFC (human RFC transfected); assay type: cell-based, Chinese hamster; details: CHO/C5-hRFC
Procedure: as §1

AA8 cells = test: Growth inhibition, SRB assay, AA8 (parental CHO); assay type: cell-based, Chinese hamster; details: for IC50: AA8 parental CHO
Procedure: as §1

[1] = target: T1, thymidylate synthase (TS) (Homo sapiens, UniProt P04818); test: TS in situ inhibition assay (TSIA) in colon cancer cells; assay type: cell-based
T1 construct: The principle of this assay is the measurement of TS enzymatic activity in intact cells; endogenous in cells; host or cells: colon cancer cell lines (WiDr, WiDr-LF, SW1398, LS174T and others)
Excerpt: The principle of this assay is the measurement of TS enzymatic activity in intact cells. Intact cells will readily internalize radioactively labelled [5-^3H]-deoxycytidine, which will be rapidly converted by deoxycytidine kinase (dCK) to [5-^3H]-dCMP and subsequently deaminated to [5-^3H]-dUMP, which will then serve as a substrate in the TS catalysed reaction to dTMP and ^3H2O; the quantity of ^3H2O formed over time is a measure of intracellular TS activity. […] This is because dCK has a higher, cell cycle independent activity than thymidine kinase 1, which is a cell cycle dependent enzyme. For this purpose, cancer cells were cultured in six wells plates at 2.5 × 10^5 cells/2 mL/well for 24 h. Thereafter, cells were exposed to drugs with or without the LV formulations at the indicated concentrations for 4 h. 2 h before the end of the incubation period [5-^3H]-2′-deoxycytidine (final concentration 1 µM) was added to the cells. […] In most cell lines we quantified dCK activity and dCK mRNA levels.

WiDr cells = test: Growth inhibition, SRB assay, WiDr; assay type: cell-based; details: Homo sapiens, 72 h, read-out: IC50, 72 h drug exposure
Procedure: as §1

WiDr LF/LV cells = test: Growth inhibition, SRB assay, WiDr LF/LV; assay type: cell-based, human; details: Homo sapiens, WiDr, 72 h, WiDr LF/LV, SRB, read-out: IC50, 72 h drug exposure
Procedure: as §1

CaCo2 cells = test: Growth inhibition, SRB assay, CaCo2; assay type: cell-based; details: Homo sapiens, Caco-2, 72 h, read-out: IC50, 72 h drug exposure
Procedure: as §1

CaCo2 LF/LV cells = test: Growth inhibition, SRB assay, CaCo2 LF/LV; assay type: cell-based; details: Homo sapiens, Caco-2, 72 h, read-out: IC50, 72 h drug exposure
Procedure: as §1

LS174T cells = test: Growth inhibition, SRB assay, LS174T; assay type: cell-based; details: Homo sapiens, 72 h, read-out: IC50, 72 h drug exposure
Procedure: as §1

HT29 cells = test: Growth inhibition, SRB assay, HT29; assay type: cell-based; details: Homo sapiens, HT-29, 72 h, read-out: IC50, 72 h drug exposure
Procedure: as §1

SW948 cells = test: Growth inhibition, SRB assay, SW948; assay type: cell-based; details: Homo sapiens, SW948, 72 h, read-out: IC50, 72 h drug exposure
Procedure: as §1

SW1398 cells = test: Growth inhibition, SRB assay, SW1398; assay type: cell-based; details: Homo sapiens, 72 h, read-out: IC50, 72 h drug exposure
Procedure: as §1

colon cancer cell lines = test: Growth inhibition, SRB assay, panel of colon cancer cell lines; assay type: cell-based, human; details: Homo sapiens, read-out: IC50 range over colon cancer cell lines
Procedure: as §1

[2] = Cricetulus griseus, antifolate alone

T1 sequence (P04818 2-313 limits assumed): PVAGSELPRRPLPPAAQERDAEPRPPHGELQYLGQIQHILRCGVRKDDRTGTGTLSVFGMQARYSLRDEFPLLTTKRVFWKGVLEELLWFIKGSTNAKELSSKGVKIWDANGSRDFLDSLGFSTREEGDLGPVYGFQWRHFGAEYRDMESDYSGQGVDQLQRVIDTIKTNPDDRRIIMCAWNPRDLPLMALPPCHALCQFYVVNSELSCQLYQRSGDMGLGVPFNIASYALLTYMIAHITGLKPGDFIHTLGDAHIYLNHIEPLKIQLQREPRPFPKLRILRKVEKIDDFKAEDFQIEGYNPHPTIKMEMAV

`Nc1nc2[nH]cc(CCc3ccc(C(=O)N[C@@H](CCC(=O)O)C(=O)O)cc3)c2c(=O)[nH]1` [PMX, pemetrexed] showed an IC50 (H28 cells; antifolate + 5 µM l-LV) of 34.3 µM, an IC50 (H28 cells; Homo sapiens, NCI-H28, 72 h, antifolate alone) of 0.28 ± 0.048 µM and an IC50 (MSTO-211H cells; Homo sapiens, 72 h, antifolate alone) of 0.143 ± 0.014 µM. The IC50 (MSTO-211H cells; antifolate + 5 µM l-LV) was 21 µM, the IC50 (H460 cells; antifolate + 5 µM l-LV) was 52.7 µM and the IC50 (H460 cells; Homo sapiens, NCI-H460, 72 h, antifolate alone) was 0.302 ± 0.012 µM. For the same compound, the IC50 (H292 cells; antifolate + 5 µM l-LV) was 17 µM, the IC50 (H292 cells; Homo sapiens, NCI-H292, 72 h, antifolate alone) was 0.103 ± 0.012 µM and the “l-LV-mediated increase in the IC50 values, range over cell lines” value (NSCLC and MPM cell lines) was 144-211 fold. The IC50 (CHO/C5 cells; [2]) was 3.1 µM, the IC50 (CHO/C5 cells; antifolate + 5 µM l-LV) was 59.6 µM and the IC50 (CHO/C5-MOCK cells; [2]) was 42 µM. It also gave an IC50 (CHO/C5-MOCK cells; antifolate + 5 µM l-LV) of over 100 µM, an IC50 (CHO/C5-PCFT cells; [2]) of 10.6 µM and an IC50 (CHO/C5-PCFT cells; antifolate + 5 µM l-LV) of 49.2 µM. The IC50 (CHO/C5-hRFC cells; antifolate + 5 µM l-LV) was 29.3 µM, the IC50 (CHO/C5-hRFC cells; [2]) was 0.046 µM and the “Protection by l-LV, increase of the IC50 value” (AA8 cells; AA8 cells, 5 µM l-LV) was 94 fold. It also gave an IC50 (AA8 cells; antifolate + 5 µM l-LV) of 3.5 µM, an IC50 (AA8 cells; [2]) of 0.037 µM and an IC50 ([1]; WiDr, 4 h, antifolate alone) of 0.175 ± 0.075 µM.
`O=c1[nH]cc(F)c(=O)[nH]1` [5-FU, 5-fluorouracil] was tested, and the IC50 (WiDr cells; 5-FU + 5 µM d-LV) was 4.21 ± 0.57 µM, the IC50 (WiDr cells; 5-FU + 5 µM l-LV) was 1.95 ± 0.2 µM and the IC50 (WiDr cells; 5-FU + 10 µM dl-LV) was 2.91 ± 1.06 µM. The IC50 (WiDr cells; 5-FU alone) was 4.56 ± 0.34 µM, the IC50 (WiDr LF/LV cells; 5-FU + 5 µM d-LV) was 2.78 ± 0.34 µM and the IC50 (WiDr LF/LV cells; 5-FU + 5 µM l-LV) was 1.77 ± 0.15 µM. For the same compound, the IC50 (WiDr LF/LV cells; 5-FU + 10 µM dl-LV) was 1.75 ± 0.08 µM, the IC50 (WiDr LF/LV cells; 5-FU alone) was 1.83 ± 0.18 µM and the IC50 (CaCo2 cells; 5-FU + 5 µM d-LV) was 3.04 ± 0.66 µM. The IC50 (CaCo2 cells; 5-FU + 5 µM l-LV) was 3.04 ± 0.39 µM, the IC50 (CaCo2 cells; 5-FU + 10 µM dl-LV) was 3.63 ± 0.38 µM and the IC50 (CaCo2 cells; 5-FU alone) was 3.08 ± 0.27 µM. It also gave an IC50 (CaCo2 LF/LV cells; 5-FU + 5 µM d-LV) of 1.96 ± 0.62 µM, an IC50 (CaCo2 LF/LV cells; 5-FU + 5 µM l-LV) of 1.78 ± 0.18 µM and an IC50 (CaCo2 LF/LV cells; 5-FU + 10 µM dl-LV) of 1.78 ± 0.39 µM. For the same compound, the IC50 (CaCo2 LF/LV cells; 5-FU alone) was 2.05 ± 0.28 µM, the IC50 (LS174T cells; 5-FU + 5 µM d-LV) was 10.5 ± 0.8 µM and the IC50 (LS174T cells; 5-FU + 5 µM l-LV) was 8.11 ± 0.71 µM. The IC50 (LS174T cells; 5-FU + 10 µM dl-LV) was 8.95 ± 0.72 µM, the IC50 (LS174T cells; 5-FU alone) was 10.5 ± 0.82 µM and the IC50 (HT29 cells; 5-FU + 5 µM d-LV) was 7.5 ± 0.5 µM. For the same compound, the IC50 (HT29 cells; 5-FU + 5 µM l-LV) was 3.3 ± 0.2 µM, the IC50 (HT29 cells; 5-FU + 10 µM dl-LV) was 3.8 ± 0.3 µM and the IC50 (HT29 cells; 5-FU alone) was 7.9 ± 2.65 µM. It also gave an IC50 (SW948 cells; 5-FU + 5 µM d-LV) of 3.85 ± 0.66 µM, an IC50 (SW948 cells; 5-FU + 5 µM l-LV) of 2.63 ± 0.4 µM and an IC50 (SW948 cells; 5-FU + 10 µM dl-LV) of 2.78 ± 0.29 µM. The IC50 (SW948 cells; 5-FU alone) was 3.65 ± 0.41 µM, the IC50 (SW1398 cells; 5-FU + 5 µM d-LV) was 2.4 ± 0.68 µM and the IC50 (SW1398 cells; 5-FU + 5 µM l-LV) was 1.28 ± 0.18 µM. It also gave an IC50 (SW1398 cells; 5-FU + 10 µM dl-LV) of 1.44 ± 0.37 µM, an IC50 (SW1398 cells; 5-FU alone) of 2.99 ± 0.47 µM and an IC50 (colon cancer cell lines; 5-FU + 5 µM d-LV) of 2 to 10.5 µM. It also gave an IC50 (colon cancer cell lines; 5-FU + 5 µM l-LV) of 1.3 to 8.1 µM, an IC50 (colon cancer cell lines; 5-FU + 10 µM dl-LV) of 1.4 to 8.9 µM and an IC50 (colon cancer cell lines; 5-FU only) of 1.8 to 10.5 µM. The IC50 ([1]; SW1398, 4 h, 5FU alone) was 4.14 ± 0.24 µM, the IC50 ([1]; WiDr, 4 h, 5FU alone) was 3.76 ± 0.35 µM and the IC50 ([1]; WiDr-LF, 4 h, 5FU alone) was 3.67 ± 0.33 µM.
